Drawing on BindingDB's records for doi:10.1021/jm00164a009 (Research Biochemicals, 1990), this text covers Kd and Ki for two compounds.

In general, Kd refers to a measure of binding affinity in units of concentration. As a reminder, the Ki is the equilibrium dissociation constant of an inhibitor or competing ligand from its target. A low value points to higher affinity.

Structures are written as SMILES.

Assay [1] is described as follows: Ability to inhibit [3H]-SCH- 23390 binding to Dopamine receptor D1 of canine striatal membranes.
Assay in assay [2]: as above
This is another data set of the same source.

On to `CN1CCc2cc(I)c(O)cc2[C@H](c2ccc(N=[N+]=[N-])cc2)C1`, for which the Kd in assay [1] was 0.00028 µM.

On to `CN1CCc2cc(I)c(O)cc2[C@@H](c2ccc(N=[N+]=[N-])cc2)C1`, for which the Ki in assay [2] was 0.028 µM.
